Results from the supplement of paper PMC10307832.

Legend:
Experiment in all cases: relative viability (nuclei count vs DMSO), 5 days (fraction); higher = more cells survive
[1] = compound: Cc1ccc(-n2nc(C(C)(C)C)cc2NC(=O)Nc2ccc(OCCN3CCOCC3)c3ccccc23)cc1 [Doramapimod] + O=C(c1cc(Cc2n[nH]c(=O)c3ccccc23)ccc1F)N1CCN(C(=O)C2CC2)CC1 [Olaparib] (partner 8 µM)
How it was run: (§1)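 Values are medians from duplicate plates. Each reflects relative viability, defined as the nuclei count of treated wells over that of vehicle wells. Lung cancer cell lines in 1536-well plates were pin-tool dosed one day after seeding with one drug alone or with a fixed anchor-drug dose plus five library-drug doses (not always all listed) in √10 steps, then fixed, stained and imaged at 4× after 5 days.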

[2] = compound: Cn1c(Nc2ccc(C(F)(F)F)cc2)nc2cc(Oc3ccnc(-c4ncc(C(F)(F)F)[nH]4)c3)ccc21 [RAF265] + O=C(c1cc(Cc2n[nH]c(=O)c3ccccc23)ccc1F)N1CCN(C(=O)C2CC2)CC1 [Olaparib] (partner 8 µM)
How it was run: as §1

[3] = compound: Cc1ccc(-n2nc(C(C)(C)C)cc2NC(=O)Nc2ccc(OCCN3CCOCC3)c3ccccc23)cc1 [Doramapimod] + COc1cccc2cc(-c3nc([C@H]4CC[C@H](C(=O)O)CC4)n4ncnc(N)c34)[nH]c12 [OSI-027] (partner 0.5 µM)
How it was run: as §1

[4] = compound: Cn1c(Nc2ccc(C(F)(F)F)cc2)nc2cc(Oc3ccnc(-c4ncc(C(F)(F)F)[nH]4)c3)ccc21 [RAF265] + CS(=O)(=O)N1CCN(Cc2cc3nc(-c4cccc5[nH]ncc45)nc(N4CCOCC4)c3s2)CC1 [Pictilisib] (partner 1 µM)
How it was run: as §1

Cell Line	relative viability ([1]; first compound 0.02 µM)	relative viability ([1]; first compound 0.06325 µM)	relative viability ([1]; first compound 0.2 µM)	relative viability ([1]; first compound 0.6325 µM)	relative viability ([1]; first compound 2 µM)	relative viability ([2]; first compound 0.01 µM)	relative viability ([2]; first compound 0.03162 µM)	relative viability ([2]; first compound 0.1 µM)	relative viability ([2]; first compound 0.3162 µM)	relative viability ([2]; first compound 1 µM)	relative viability ([3]; first compound 0.02 µM)	relative viability ([3]; first compound 0.06325 µM)	relative viability ([3]; first compound 0.2 µM)	relative viability ([3]; first compound 0.6325 µM)	relative viability ([3]; first compound 2 µM)	relative viability ([4]; first compound 0.01 µM)	relative viability ([4]; first compound 0.03162 µM)	relative viability ([4]; first compound 0.1 µM)	relative viability ([4]; first compound 0.3162 µM)	relative viability ([4]; first compound 1 µM)
NCI-H661	0.797	0.756	0.785	0.717	0.75	0.775	0.667	0.724	0.605	0.464	0.71	0.732	0.791	0.799	0.629	0.438	0.498	0.383	0.288	0.283
HCC-366	0.331	0.333	0.318	0.368	0.303	0.388	0.38	0.452	0.397	0.239	0.837	0.918	0.937	1.08	0.853	0.18	0.211	0.181	0.189	0.147
SK-LU-1	0.487	0.43	0.39	0.503	0.388	0.511	0.386	0.419	0.283	0.265	0.332	0.382	0.379	0.35	0.383	0.688	0.422	0.41	0.297	0.27
HCC-44	0.995	0.976	0.993	0.979	0.977	0.977	0.985	0.998	0.984	1.01	0.563	0.607	0.625	0.463	0.433	0.631	0.697	0.55	0.507	0.561
